According to patent publication US20020119496A1, “Nuclear magnetic resonance screening method” (priority 2000, published 2002):

Target: T1, human muscle fatty acid binding protein M-FABP (Homo sapiens, UniProt P05413)
T1 construct: a plasmid containing the gene coding for a 143 amino acid protein construct of M-FABP; His-tag (C); made in house; host or cells: prototrophic Escherichia coli
Assay: Site-selective NMR screening, 1H-15N fHSQC of 13C'-Val, 15N-Ala labeled M-FABP
Conditions: 1:1 mixture with M-FABP, 200 μM protein
Procedure: The spectra were recorded at 20° C. on a 600 MHz Varian Unity INOVA NMR spectrometer using standard techniques. The sample was prepared in 20 mM sodium phosphate buffer (10% D2O/90% H2O) pH 7.4 containing 50 mM NaCl, 10 mM DTT and 0.02% NaN3. […] (a) 2D ^1H-^15N fast-HSQC (Mori et al., 1995), (b) 2D HNCO and (c) 1D HNCO. […] Experimental times were 1 hour, 4 hours, and 20 minutes respectively.
Experimental conditions were identical to those described in FIG. 8 except the samples used for spectra b-d contained additionally 1% d-DMSO. (a-d) Reference spectrum of free M-FABP. (b) 1:1 mixture of M-FABP and compound cocktail. (c) 1:1 mixture M-FABP and compound cocktail omitting oleic acid. (d) 1:1 mixture of M-FABP and oleic acid.

T1 sequence (P05413 whole entry): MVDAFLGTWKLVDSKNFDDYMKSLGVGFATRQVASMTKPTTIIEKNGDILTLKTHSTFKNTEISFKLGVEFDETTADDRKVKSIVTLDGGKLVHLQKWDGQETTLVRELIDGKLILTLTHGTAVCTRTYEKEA

chemical shift change of alanine 33 HSQC cross peak: chemical shift change is observed
Structure (SMILES): CCCCCCCC/C=C\CCCCCCCC(=O)O [oleic acid]
